Here are results for 15 compounds from patent publication US9073961B2, “Substitution derivatives of N6 -benzyladenosine-5′-monophosphate, methods of preparation thereof, use thereof as medicaments, and therapeutic preparations containing these compounds” (UNIVERZITA PALACKEHO V OLOMOUCI, priority 2010, dated 2015).

Bounds are passed on as bounds.

The subject of assay [1] is HOS (human osteogenic sarcoma). As to the kind of experiment: Calcein AM cytotoxicity assay, HOS. The class given is cell-based. The following applies: 72 hours incubation. An excerpt:
(§1) Because toxic compounds negatively influence metabolic processes in cells, many standard cytotoxicity assays are based on measurement of metabolisation rate of various artificial substrates. Resulting product is then quantified e.g. by means of spectrometry. The assays can be easily modified for use in 96-well plates. For evaluation of cytotoxic effect of the novel substituted 9-substituted cytokinin derivatives of this invention, a microtiter assay based on quantification of metabolisation of Calcein AM was used. The assay is widely used in drug screening programs and in chemosensitivity testing. In the living cells, Calcein AM is enzymatically hydrolysed and accumulation of resulting calcein is manifested by green fluorescence.
(§2) In the routine screening the following cell lines have been used: CEM (T-lymphoblastoid leukemia), HL-60 (promyelocytic leukemia), K-562 (human erythroleukemia), MCF-7 (breast carcinoma), HOS (human osteogenic sarcoma), and G-361 (human malignant melanoma). Normal human fibroblasts BJ were used as a control for routine screening of the compounds. The cells were kept in Nunc/Corning 80 cm^2 plastic bottles and grown in cell culture medium (DMEM containing 5 g/l glucose, 2 mM glutamine, 100 U/ml penicilline, 100 μg/ml streptomycine, 10% fetal bovine serum and sodium hydrogencarbonate), the compounds were prepared according to the procedure of the present invention.
(§3) The cell suspensions were prepared and diluted according to the particular cell type and the expected target cell density (2.500-30.000 cells per well based on cell growth characteristics) and pippetted (80 μl) into 96-well plates. Inoculates were allowed a pre-incubation period of 24 hours at 37° C. and 5% CO2 for stabilisation. Tested compound was added in total volume of 20 μl of water at time zero. Usually, test compound was evaluated at six 3-fold dilutions. In routine testing, the highest concentration tested was 166.7 μM. All drug concentrations were tested in triplicates. Incubations of cells with the test compounds lasted for 72 hours at 37° C., in 5% CO2 atmosphere and 100% humidity. At the end of incubation period Calcein AM in PBS was added into final concentration of 1 μg/ml. After another 1 hour of incubation fluorescence (FD) was measured with the Labsystem FIA Reader Fluoroscan Ascent (Microsystems). Tumor cell survival (TCS) was estimated using the following equation: […]=(FDdrug exposed well/FDcontrol well)×100%. The GI50 value, the drug concentration causing 50% reduction of esterase activity, was calculated from the obtained dose response curves (FIG. 1).
(§4) Cytoxicity of novel compounds was tested on panel of cell lines of different histogenetic and species origin (Table 3). […] The effective novel derivatives killed tumour cells in concentrations close to 0.1-50 μM.

The test system of assay [2] is K-562 (human erythroleukemia). As to the kind of experiment: Calcein AM cytotoxicity assay, K-562. Format: cell-based. The following applies: 72 hours incubation.
Excerpt: as §1, §2, §3, §4

The subject of a further assay is MCF-7 (breast carcinoma). In words: Calcein AM cytotoxicity assay, MCF7. The following applies: 72 hours incubation. The class given is cell-based.
Excerpt: as §1, §2, §3, §4

Assay [3] concerns Normal human fibroblasts BJ. In words: Calcein AM cytotoxicity assay, BJ. The class given is cell-based. The following applies: 72 hours incubation.
Excerpt: as §1, §2, §3, §4

Assay [4] concerns CEM (T-lymphoblastoid leukemia). As to the kind of experiment: Calcein AM cytotoxicity assay, CEM. The class given is cell-based. The following applies: 72 hours incubation, Calcein AM.
Excerpt: as §1, §2, §3, §4

Assay [5] deals with HL-60 (promyelocytic leukemia). In words: Calcein AM cytotoxicity assay, HL60. The following applies: 72 hours incubation. Format: cell-based, human.
Excerpt: as §1, §2, §3, §4

Assay [6] concerns cytokinin-dependent tobacco callus Nicotiana tabacum L. cv. Wisconsin 38. In words: Growth of cytokinin-dependent tobacco callus. The class given is cell-based. The following applies: for Activity (%) [10^−5 mol · l^−1 KR = 100%]: at concentration with highest activity, relative to control cytokinin; for Concentration with highest activity: tobacco callus fresh weight after four weeks. On the procedure: Cytokinin effect of newly prepared derivatives was tested using cytokinin-dependent tobacco callus. The cytokinin-dependent tobacco callus Nicotiana tabacum L. cv. Wisconsin 38 was maintained at 25° C. in darkness on modified MS medium, containing per 1 liter: 4 μmol of nicotinic acid, 2.4 μmol of pyridoxine hydrochloride, 1.2 μmol of thiamine, 26.6 μmol of glycine, 1.37 μmol of glutamine, 1.8 μmol of myo-inositol, 30 g of sucrose, 8 g of agar, 5.37 μmol of NAA and 0.5 μmol of the compound tested. Subcultivation was carried out every three weeks. Fourteen days before the bioassay, the callus tissue was transferred to the media without 6-benzylaminopurine. The biological activity was determined from the increase of the fresh callus weight after four weeks of cultivation. Five replicates were prepared for each concentration of the compound tested and the entire test was repeated twice. […] The compounds to be tested were dissolved in dimethylsulfoxide (DMSO) and the solution brought up to 10^−3 M with distilled water. […] The stimulatory activity was calculated from the dose-dependent fresh weight callus growth curves.
From the obtained data, the concentration with the highest activity was selected for each compound tested. Relative activity of the compound at this concentration was calculated (Table 5). […]

For `O=P(O)(O)OC[C@H]1O[C@@H](n2cnc3c(NCc4ccc(F)cc4Cl)ncnc32)[C@H](O)[C@@H]1O` [2-chloro-4-fluorobenzylamino, 6-(2-chloro-4-fluorobenzylamino)purine riboside-5′-monophosphate], the GI50 in assay [1] is greater than 167 µM; in assay [2], 11.7 µM; in the assay with MCF-7 (breast carcinoma), greater than 167 µM; in assay [3], greater than 167 µM; in assay [4] it was 20.9 µM; in assay [5], 9 µM. The “Activity (%) [10^−5 mol · l^−1 KR = 100%]” value (“Activity (%)” below) in assay [6] turned out to be 108 ± 4%. Moreover, the “Concentration with highest activity” value in assay [6] is listed as 10^−5 mol · l^−1.
For the compound `O=P(O)(O)OC[C@H]1O[C@@H](n2cnc3c(NCc4ccccc4Br)ncnc32)[C@H](O)[C@@H]1O` [Compound 7, 6-(2-bromobenzylamino)purine riboside-5′-monophosphate], the GI50 in assay [1] was greater than 167 µM; in assay [2], 10 µM; in the assay on MCF-7 (breast carcinoma), greater than 167 µM; in assay [3] it was greater than 167 µM; in assay [4], 12.3 µM; in assay [5], 6.6 µM. Moreover, the “Activity (%)” value in assay [6] is reported as 100 ± 4%. For the same compound, the “Concentration with highest activity” value in assay [6] is on record as 10^−5 mol · l^−1.
With `O=P(O)(O)OC[C@H]1O[C@@H](n2cnc3c(NCc4cccc(Br)c4)ncnc32)[C@H](O)[C@@H]1O` [Compound 8, 6-(3-bromoobenzylamino)purine riboside-5′-monophosphate], the GI50 was greater than 167 µM in assay [1]; 19.7 µM in assay [2]; greater than 167 µM with MCF-7 (breast carcinoma); greater than 167 µM in assay [3]; 5 µM in assay [4]; 8 µM in assay [5]. In assay [6], the “Activity (%)” value is listed as 102 ± 11%. For the same compound, the “Concentration with highest activity” value in assay [6] is on record as 10^−6 mol · l^−1.
In the case of `O=P(O)(O)OC[C@H]1O[C@@H](n2cnc3c(NCc4ccc(Br)cc4)ncnc32)[C@H](O)[C@@H]1O` [Compound 9, 6-(4-bromobenzylamino)purine riboside-5′-monophosphate], the GI50 was greater than 167 µM in assay [1]; 68.2 µM in assay [2]; greater than 167 µM in the assay on MCF-7 (breast carcinoma); greater than 167 µM in assay [3]; 20.6 µM in assay [4]; 47.7 µM in assay [5].
As for `O=P(O)(O)OC[C@H]1O[C@@H](n2cnc3c(NCc4ccc(Cl)cc4Cl)ncnc32)[C@H](O)[C@@H]1O` [Compound 24, 6-(2,4-dichlorobenzylamino)purine riboside-5′-monophosphate], the GI50 was greater than 167 µM in assay [1]; 85.7 µM in assay [2]; 127 µM with MCF-7 (breast carcinoma); greater than 167 µM in assay [3]; 86.7 µM in assay [4]; 96.3 µM in assay [5].
For `O=P(O)(O)OC[C@H]1O[C@@H](n2cnc3c(NCc4ccc(Cl)c(Cl)c4)ncnc32)[C@H](O)[C@@H]1O` [Compound 25, 6-(3,4-dichlorobenzylamino)purine riboside-5-monophosphate], the GI50 in assay [1] is greater than 167 µM; in assay [2], 6.5 µM; with MCF-7 (breast carcinoma), 88.8 µM; in assay [3], greater than 167 µM; in assay [4] it was 3 µM; in assay [5], 1.1 µM.
Turning to `COc1ccc(CNc2ncnc3c2ncn3[C@@H]2O[C@H](COP(=O)(O)O)[C@@H](O)[C@H]2O)cc1O` [Compound 30, 6-(3-hydroxy-4-methoxybenzylamino)purine riboside-5′-monophosphate], the GI50 in assay [1] is greater than 167 µM; in assay [2], greater than 167 µM; in the assay with MCF-7 (breast carcinoma), greater than 167 µM; in assay [3] it was greater than 167 µM; in assay [4], 79.3 µM; in assay [5] it was 68.9 µM.
For `COc1cccc(CNc2ncnc3c2ncn3[C@@H]2O[C@H](COP(=O)(O)O)[C@@H](O)[C@H]2O)c1OC` [Compound 31, 6-(2,3-dimethoxybenzylamino)purine riboside-5′-monophosphate], the GI50 is greater than 167 µM in assay [1]; greater than 167 µM in assay [2]; greater than 167 µM with MCF-7 (breast carcinoma); greater than 167 µM in assay [3]; greater than 167 µM in assay [4]; 109 µM in assay [5].
For the compound `COc1ccc(CNc2ncnc3c2ncn3[C@@H]2O[C@H](COP(=O)(O)O)[C@@H](O)[C@H]2O)c(OC)c1` [Compound 32, 6-(2,4-dimethoxybenzylamino)purine riboside-5′-monophosphate], the GI50 in assay [1] is greater than 167 µM; in assay [2] it was greater than 167 µM; in the assay with MCF-7 (breast carcinoma), greater than 167 µM; in assay [3], greater than 167 µM; in assay [4], greater than 167 µM; in assay [5], 39 µM.
For `COc1cc(CNc2ncnc3c2ncn3[C@@H]2O[C@H](COP(=O)(O)O)[C@@H](O)[C@H]2O)cc(OC)c1` [Compound 34, 6-(3,5-dimethoxybenzylamino)purine riboside-5′-monophosphate], the GI50 in assay [1] was greater than 167 µM; in assay [2], greater than 167 µM; in the assay with MCF-7 (breast carcinoma) it was greater than 167 µM; in assay [3], greater than 167 µM; in assay [5] it was 18.8 µM.
In the case of `O=P(O)(O)OC[C@H]1O[C@@H](n2cnc3c(NCc4ccc(F)cc4F)ncnc32)[C@H](O)[C@@H]1O` [Compound 36, 6-(2,4-difluorobenzylamino)purine riboside-5-monophosphate], the GI50 was greater than 167 µM in assay [1]; 7.4 µM in assay [2]; greater than 167 µM in the assay on MCF-7 (breast carcinoma); greater than 167 µM in assay [3]; 7.1 µM in assay [4]; 3.4 µM in assay [5].
Consider `O=P(O)(O)OC[C@H]1O[C@@H](n2cnc3c(NCc4cc(F)cc(F)c4)ncnc32)[C@H](O)[C@@H]1O` [Compound 37, 6-(3,5-difluorobenzylamino)purine riboside-5′-monophosphate], for which the GI50 in assay [1] is greater than 167 µM; in assay [2] it was greater than 167 µM; in the assay on MCF-7 (breast carcinoma), greater than 167 µM; in assay [3] it was greater than 167 µM; in assay [4] it was 24.5 µM; in assay [5], 9.1 µM. Further, in assay [6], the “Activity (%)” value is 105 ± 3%. In assay [6], the “Concentration with highest activity” value is given as 10^−6 mol · l^−1.
For the compound `O=P(O)(O)OC[C@H]1O[C@@H](n2cnc3c(NCc4ccc(F)c(F)c4F)ncnc32)[C@H](O)[C@@H]1O` [Compound 38, 6-(2,3,4-trifluorobenzylamino)purine riboside-5′-monophosphate], the GI50 was greater than 167 µM in assay [1]; greater than 167 µM in assay [2]; greater than 167 µM in the assay on MCF-7 (breast carcinoma); greater than 167 µM in assay [3]; 58.2 µM in assay [4]; 13 µM in assay [5].
Consider `O=P(O)(O)OC[C@H]1O[C@@H](n2cnc3c(NCc4cc(F)c(F)cc4F)ncnc32)[C@H](O)[C@@H]1O` [Compound 39, 6-(2,4,5-trifluorobenzylamino)purine riboside-5′-monophosphate], for which, in assay [6], the “Activity (%)” value stood at 105 ± 3% and the “Concentration with highest activity” value is reported as 10^−5 mol · l^−1.
For `O=P(O)(O)OC[C@H]1O[C@@H](n2cnc3c(NCc4c(F)ccc(F)c4F)ncnc32)[C@H](O)[C@@H]1O` [Compound 40, 6-(2,3,6-trifluorobenzylamino)purine riboside-5′-monophosphate], the 50% growth inhibitory concentration (GI50) was greater than 167 µM in assay [1]; greater than 167 µM in assay [2]; greater than 167 µM with MCF-7 (breast carcinoma); greater than 167 µM in assay [3]; 13 µM in assay [5].
